Measured values: patent US20050026296A1, “Diagnostic method based on lipid measuring parameter modulations/effector quotient profiles” (priority 2001, published 2005)

System: leukocytes from the peripheral blood
Assay: Release of prostaglandin E2 (PGE2) and peptide leukotrienes (pLT) from leukocytes after modulation, quantified by EIA
Assay type: cell-based, human
Conditions: for PGE2 (lipid measurement parameter A) in cell culture supernatant / pLT (lipid measurement parameter B) in cell culture supernatant: 100,000 cells/ml, 37° C., 30 minutes; for Standardized effector quotient (PGE/pLT) / Standardized modulation quotient PGE2 / Standardized modulation quotient pLT: divided by quotient of standard group
Experimental: Human leukocytes of the peripheral blood are separated from plasma with the aid of a dextran gradient, and adjusted to a defined cell count (100,000 cells/ml). Subsequently, the stimulation is effected by incubation of the cells, e.g. without or while adding arachidonic acid as modulating indicator substance, or anti-IgE as modulating effector for a defined time (30 minutes) at 37° C. in cell culture medium (e.g. RPMI 1640). After sedimentation of the cells by centrifugation for 5 minutes with 800×g at 4° C., the cell-free supernatant is collected and can be stored at −80° C. under nitrogen or argon, if desired. Afterwards, these measurement samples are transferred to a polystyrol plate coated with prostaglandin E2 or peptide leukotrienes, respectively, and incubated for 18 hours at 4° C. while adding an anti-prostaglandin-E2- or anti-peptide-leukotriene-antibody, respectively, (“competitive assay”). After a washing step, an incubation at 23° C. for 2 hours is performed with a biotinylated secondary antibody against the first antibody. After further washing, incubation follows with a streptavidin-conjugated peroxidase at 23° C. for 1 hour, and after further washing, a peroxidase substrate is added and the optical density is determined after about 30 minutes with a multichannel photometer. With the aid of the standard curves carried along, the measurement values can now be quantified and used for calculating the lipid measurement parameter stimulation/effector quotient profiles (an example for the calculation is given herein below).
1) Leukocytes from the peripheral blood of investigation group 1/standard group/investigation group 2 are obtained by blood withdrawal, followed by density gradient separation (3% dextran solution) for separating plasma and leukocytes. The leukocytes thus obtained are washed 3 times with phosphate buffered solution (PBS) and pooled/resuspended in cell culture medium ([…]), before they are adjusted to a cell count of 100,000 cells/ml (investigation group 2 only in this example; in principle, a second group is not necessary for this test, but serves here for a better understanding and as second comparison group, both to the standard group and to the investigation group).
2) The cells are divided into 3 equal parts (e.g. 3 times with 1 ml cell suspension with 100,000 cells/ml each) in reaction vessels (e.g. plastic or glass vessels).
A control solution is added to the first part-sample (=without further modulator, =zero or blank value; control solution is the solvent, in which the modulators are dissolved).
Arachidonic acid is added to the second part-sample (concentration: 10^−5 M; =indicator substance).
An anti-immunoglobulin-E solution is added to the third part-sample (e.g. 1:100 dilution of the anti-human-IgE-solution from DAKO, =modulator or modulating substance).
Exposition/incubation with the indicator substance arachidonic acid and the modulator anti-immunoglobulin-E-solution is started simultaneously at e.g. 37° C. for e.g. 30 minutes.
Thereafter, the cells are separated from the cell culture medium, e.g. by centrifugation at 4° C. with a sedimentation force of e.g. 800×g. The supernatant obtained from the 3 part-samples, separated for each part-sample, is then collected in suitable vessels (e.g. cryovessels) and stored until EIA analysis at e.g. −70° C.
3) The contents of prostaglandin E2 (PGE2) and peptide leukotrienes (pLT9) in the cell culture supernatants of the 3 part-samples are analysed and quantified by enzyme immunological assays (EIA) specific for PGE2 (=lipid measurement parameter A) and pLT (=lipid measurement parameter B), respectively.

SMILES: CCCCC/C=C\C/C=C\C/C=C\C/C=C\CCCC(=O)O [arachidonic acid]
- PGE2 (lipid measurement parameter A) in cell culture supernatant (Investigation group 1 (I1)): 4120 ± 236 pg/mL
- pLT (lipid measurement parameter B) in cell culture supernatant (Investigation group 1 (I1)): 150±10.4 pg/ml
- Effector quotient (PGE/pLT) (Investigation group 1 (i1)): 27.5
- Modulation quotient PGE2 (modulated value / zero value A0) (Investigation group 1 (i1)): 11.8
- Modulation quotient pLT (modulated value / zero value B0) (Investigation group 1 (i1)): 1.3
- Standardized effector quotient (PGE/pLT) (Investigation group 1 (i1)): 0.941
- Standardized modulation quotient PGE2 (Investigation group 1 (i1)): 5.1
- Standardized modulation quotient pLT (Investigation group 1 (i1)): 0.21
- PGE2 (lipid measurement parameter A) in cell culture supernatant (Investigation group 2 (I2)): 3976 ± 245 pg/mL
- pLT (lipid measurement parameter B) in cell culture supernatant (Investigation group 2 (I2)): 128 ± 10.4 pg/ml
- Effector quotient (PGE/pLT) (Investigation group 2 (i2)): 31.1
- Modulation quotient PGE2 (modulated value / zero value A0) (Investigation group 2 (i2)): 1.8
- Modulation quotient pLT (modulated value / zero value B0) (Investigation group 2 (i2)): 2.4
- Standardized effector quotient (PGE/pLT) (Investigation group 2 (i2)): 1.065
- Standardized modulation quotient PGE2 (Investigation group 2 (i2)): 0.78
- Standardized modulation quotient pLT (Investigation group 2 (i2)): 0.38
- PGE2 (lipid measurement parameter A) in cell culture supernatant (Standard group (N)): 4170 ± 275 pg/mL
- pLT (lipid measurement parameter B) in cell culture supernatant (Standard group (N)): 143 ± 12.4 pg/ml
- Effector quotient (PGE/pLT) (Standard group (n)): 29.2
- Modulation quotient PGE2 (modulated value / zero value A0) (Standard group (n)): 2.3
- Modulation quotient pLT (modulated value / zero value B0) (Standard group (n)): 6.2
- Standardized effector quotient (PGE/pLT) (Standard group (n)): 1 (0.9-1.1)
- Standardized modulation quotient PGE2 (Standard group (n)): 1 (0.8-1.2)
- Standardized modulation quotient pLT (Standard group (n)): 1 (0.5-1.2)
- induced synthesis of prostaglandin E2 compared with persons without pathological findings (analgesic intolerance): unstriking
- elevation of induced synthesis of peptide leukotriene compared with persons without pathological findings (analgesic intolerance, unstriking to faintly elevated): 0-40%
